Test [1] addresses T1, GST-tagged truncated LRRK2 (Homo sapiens, UniProt Q5S007).
T1 construct: GST-tagged truncated LRRK2 from Invitrogen (Cat # PV4874); GST; purchased Invitrogen PV4874
Description: LRRK2 Assay, Format 1 (Lantha Screen), WT. The conditions noted are these: geometric mean of 2-4 determinations unless otherwise indicated. Type of test: biochemical. In short, it runs like this:
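Kinase activity measured by TR-FRET: GST-tagged truncated LRRK2 (4 μg/mL working solution) reacted with fluorescein-labeled LRRKtide (ERM-based peptide) across a compound dose response for 2 h at room temperature. Reaction stopped with EDTA-containing detection buffer (20 mM Tris pH 7.6) holding 2 nM terbium anti-phospho-ERM antibody.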

The target in test [2] is T1, GST-tagged truncated LRRK2. Description: LRRK2 Assay, Format 2 (Lantha Screen), WT. The test is classed as biochemical. The conditions noted are these: geometric mean of 2-4 determinations unless otherwise indicated (a: >=5; b: single determination).
Test [3] addresses T2, mutant G2019S LRRK2 (Homo sapiens, UniProt Q5S007, G2019S). Briefly: LRRK2 Assay, Format 2 (Lantha Screen), G2019S mutant. The test is classed as biochemical. Further details: purchased Invitrogen PV4881. The conditions noted are these: geometric mean of 2-4 determinations unless otherwise indicated (a: >=5; b: single determination); read-out: LRRK2, Format 2 G2019S IC50.
The target of test [4] is T2, mutant G2019S LRRK2. Briefly: LRRK2 Assay, Format 1 (Lantha Screen), G2019S mutant.

The structures appear in SMILES notation.

T2 sequence (Q5S007 970-2527 G2019S limits assumed): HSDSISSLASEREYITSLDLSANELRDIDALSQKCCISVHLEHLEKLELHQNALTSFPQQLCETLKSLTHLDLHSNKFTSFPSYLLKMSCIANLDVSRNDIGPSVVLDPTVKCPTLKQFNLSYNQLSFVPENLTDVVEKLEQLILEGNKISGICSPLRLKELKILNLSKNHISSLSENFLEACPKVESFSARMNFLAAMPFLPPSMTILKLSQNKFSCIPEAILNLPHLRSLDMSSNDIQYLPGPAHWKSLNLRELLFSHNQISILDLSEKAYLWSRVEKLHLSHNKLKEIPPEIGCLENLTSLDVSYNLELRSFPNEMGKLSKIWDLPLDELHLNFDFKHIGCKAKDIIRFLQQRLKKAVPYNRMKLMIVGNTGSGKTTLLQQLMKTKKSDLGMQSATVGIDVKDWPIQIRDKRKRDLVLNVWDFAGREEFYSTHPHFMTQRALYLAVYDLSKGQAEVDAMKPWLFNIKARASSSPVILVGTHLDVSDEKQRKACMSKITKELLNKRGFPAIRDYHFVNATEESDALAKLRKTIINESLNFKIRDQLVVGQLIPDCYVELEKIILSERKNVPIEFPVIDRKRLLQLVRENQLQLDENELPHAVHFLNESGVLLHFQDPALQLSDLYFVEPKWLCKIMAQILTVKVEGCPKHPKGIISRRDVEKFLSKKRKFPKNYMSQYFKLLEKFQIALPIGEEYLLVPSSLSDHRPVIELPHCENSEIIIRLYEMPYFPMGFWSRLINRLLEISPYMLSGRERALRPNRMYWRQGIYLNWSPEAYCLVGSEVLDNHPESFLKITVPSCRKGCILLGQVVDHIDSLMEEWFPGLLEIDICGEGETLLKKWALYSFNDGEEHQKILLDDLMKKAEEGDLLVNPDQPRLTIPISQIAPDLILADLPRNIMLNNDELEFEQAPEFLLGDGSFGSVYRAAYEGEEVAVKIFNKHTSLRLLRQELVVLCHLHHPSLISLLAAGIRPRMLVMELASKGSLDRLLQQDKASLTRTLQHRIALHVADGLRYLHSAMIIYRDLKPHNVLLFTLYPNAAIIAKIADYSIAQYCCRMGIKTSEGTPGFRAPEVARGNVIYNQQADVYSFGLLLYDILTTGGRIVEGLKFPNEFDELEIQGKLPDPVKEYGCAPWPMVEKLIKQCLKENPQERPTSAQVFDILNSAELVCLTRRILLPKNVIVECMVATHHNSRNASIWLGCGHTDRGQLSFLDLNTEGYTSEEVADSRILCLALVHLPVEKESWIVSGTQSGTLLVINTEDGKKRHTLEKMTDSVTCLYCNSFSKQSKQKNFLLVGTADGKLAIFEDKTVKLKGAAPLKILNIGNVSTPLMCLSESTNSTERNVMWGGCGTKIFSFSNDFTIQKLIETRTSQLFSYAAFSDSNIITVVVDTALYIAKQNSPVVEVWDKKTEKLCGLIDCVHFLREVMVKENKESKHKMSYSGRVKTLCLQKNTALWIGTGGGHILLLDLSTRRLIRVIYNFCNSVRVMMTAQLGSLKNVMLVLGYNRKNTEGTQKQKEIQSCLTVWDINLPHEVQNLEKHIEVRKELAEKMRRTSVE
T1 sequence (Q5S007 970-2527 limits assumed): as the sequence (Q5S007 970-2527 G2019S limits assumed) above, with S1050G counted along it

As to `C[C@@H]1C[C@H](n2c(Cc3cc(C4CC4)on3)nc3cnc4ccc(C#N)cc4c32)CCO1` [Example 145, 2-[(5-cyclopropyl-1,2-oxazol-3-yl)methyl]-1-[(2R,4R)-2-methyltetrahydro-2H-pyran-4-yl]-1H-imidazo[4,5-c]quinoline-8-carbonitrile], the IC50 – broadly, the concentration that gives 50% inhibition – in test [1] stood at 4.78 nM; in test [2], 6.98 nM; at mutant G2019S LRRK2 [3], 7.33 nM; against mutant G2019S LRRK2 [4], 4.8 nM.
The matching figures for `Cc1nc(Cc2nc3cnc4ccc(Cl)cc4c3n2C2C[C@@H](C)[C@@H](F)C2)no1` (single isomer, unassigned) [Example 136]: 30.1 nM, 12 nM, 13 nM and 24.7 nM.
On to `C[C@@H]1C[C@H](n2c(Cc3cc(C4CC4)on3)nc3cnc4ccc(Br)cc4c32)CCO1` [Example 172, 8-bromo-2-[(5-cyclopropyl-1,2-oxazol-3-yl)methyl]-1-[(2R,4R)-2-methyltetrahydro-2H-pyran-4-yl]-1H-imidazo[4,5-c]quinoline], for which the half-maximal inhibitory concentration (IC50) in test [1] was 14.4 nM; in test [2] it was 6 nM; at mutant G2019S LRRK2 [3], 6.34 nM; against mutant G2019S LRRK2 [4], 9.17 nM.
On to `Cc1nc(Cc2nc3cnc4ccc(Cl)cc4c3n2[C@@H]2CCO[C@H](CC#N)C2)no1` (single isomer, unassigned; ent-1) [Example 135, [cis-4-{8-chloro-2-[(5-methyl-1,2,4-oxadiazol-3-yl)methyl]-1H-imidazo[4,5-c]quinolin-1-yl}tetrahydro-2H-pyran-2-yl]acetonitrile, ENT-1], for which the IC50 in test [1] is 3.78 nM; in test [2], 16 nM; on mutant G2019S LRRK2 [3], 15.5 nM; against mutant G2019S LRRK2 [4], 3.65 nM.
As for `Cc1cc(Cc2nc3cnc4ccc(Cl)cc4c3n2[C@@H]2CCO[C@H](CC#N)C2)no1` (single isomer, unassigned; ent-1) [Example 134, [cis-4-{8-chloro-2-[(5-methyl-1,2-oxazol-3-yl)methyl]-1H-imidazo[4,5-c]quinolin-1-yl}tetrahydro-2H-pyran-2-yl]acetonitrile, ENT-1], the IC50 in test [1] was 3.48 nM; in test [2], 7.68 nM; at mutant G2019S LRRK2 [3] it was 7.78 nM; at mutant G2019S LRRK2 [4], 3.78 nM.
The matching figures for `CC(C)c1cc(Cc2nc3cnc4ccc(Br)cc4c3n2[C@@H]2CCO[C@H](C)C2)no1` [Example 171, 8-bromo-1-[(2R,4R)-2-methyltetrahydro-2H-pyran-4-yl]-2-{[5-(propan-2-yl)-1,2-oxazol-3-yl]methyl}-1H-imidazo[4,5-c]quinoline]: 17.1 nM, 5.2 nM, 5.35 nM and 15.9 nM.
As to `Cc1cn(Cc2nc3cnc4ccc(Br)cc4c3n2[C@@H]2CCO[C@H](C)C2)nn1` [Example 173, 8-bromo-1-[(2R,4R)-2-methyltetrahydro-2H-pyran-4-yl]-2-[(4-methyl-1H-1,2,3-triazol-1-yl)methyl]-1H-imidazo[4,5-c]quinoline], the IC50 in test [1] is 5.14 nM; in test [2] it was 6.7 nM; on mutant G2019S LRRK2 [3] it was 6.72 nM; against mutant G2019S LRRK2 [4] it was 3.62 nM.

The values are drawn from patent US10039753B2, “Imidazo[4,5-c]quinoline and imidazo[4,5-c][1,5]naphthyridine derivatives as LRRK2 inhibitors” (Pfizer Inc., priority 2015, dated 2018).
